# A compilation of properties of binary mixtures (doi:10.1016/j.molliq.2022.120983)
# Assay: xn = mol fraction of the nth substance listed
# Details: 101.3 kPa
"viscosity (298.1 K, x1 = 0.0588) [mPa·s]","viscosity (298.1 K, x1 = 0.1232) [mPa·s]","viscosity (313 K, x1 = 0.0588) [mPa·s]","viscosity (313 K, x1 = 0.2726) [mPa·s]","viscosity (333 K, x1 = 0.1232) [mPa·s]","viscosity (333 K, x1 = 0.2726) [mPa·s]","viscosity (298.1 K, x1 = 0.0631) [mPa·s]","viscosity (298.1 K, x1 = 0.1317) [mPa·s]","viscosity (298.1 K, x1 = 0.2879) [mPa·s]","viscosity (313 K, x1 = 0.0631) [mPa·s]","viscosity (313 K, x1 = 0.1317) [mPa·s]","viscosity (313 K, x1 = 0.2879) [mPa·s]","viscosity (333 K, x1 = 0.0631) [mPa·s]","viscosity (333 K, x1 = 0.1317) [mPa·s]","viscosity (333 K, x1 = 0.2879) [mPa·s]",SMILES
5,9.1,3.18,18.2,3.64,10.2,,,,,,,,,,C[C@H](N)C(=O)[O-].C[N+](C)(C)CCO + O
,,,,,,4.09,10,20.9,2.73,6.4,12.3,1.82,3.64,7.3,C[N+](C)(C)CCO.NCC(=O)[O-] + O
